Laboratory results published in US7507717B2 (Xenome Ltd., priority 2002, dated 2009).
Residues, ends and D or L forms follow the SMILES beside them.

Biological target: T1, human noradrenaline transporter (hNET) (Homo sapiens, UniProt P23975)
T1 construct: expressed in transfected cells; host or cells: COS-7 cells (ATCC), transient transfection with metafectene
Experiment: biochemical
Assay type: binding
Details: Av IC50 Displacement of 3H-nisoxetine from hNET

T1 sequence (P23975 whole entry): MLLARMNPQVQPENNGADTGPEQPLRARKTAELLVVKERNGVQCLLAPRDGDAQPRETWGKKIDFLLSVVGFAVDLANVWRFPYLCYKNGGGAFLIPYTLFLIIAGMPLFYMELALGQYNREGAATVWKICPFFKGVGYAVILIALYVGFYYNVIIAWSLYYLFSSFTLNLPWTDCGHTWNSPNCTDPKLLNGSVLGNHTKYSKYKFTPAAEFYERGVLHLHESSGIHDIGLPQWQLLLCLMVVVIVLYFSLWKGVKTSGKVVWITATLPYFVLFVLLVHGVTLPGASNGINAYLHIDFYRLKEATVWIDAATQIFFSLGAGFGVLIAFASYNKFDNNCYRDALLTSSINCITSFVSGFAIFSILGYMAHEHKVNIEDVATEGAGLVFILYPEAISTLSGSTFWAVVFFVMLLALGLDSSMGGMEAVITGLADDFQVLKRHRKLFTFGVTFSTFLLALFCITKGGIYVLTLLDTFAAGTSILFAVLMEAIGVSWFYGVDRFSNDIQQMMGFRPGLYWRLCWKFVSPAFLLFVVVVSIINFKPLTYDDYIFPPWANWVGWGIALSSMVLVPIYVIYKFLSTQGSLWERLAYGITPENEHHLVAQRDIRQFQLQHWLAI

CC(C)C[C@@H]1NC(=O)[C@H](CCCCN)NC(=O)[C@H](Cc2ccc(O)cc2)NC(=O)CNC(=O)[C@@H]2CSSC[C@H](NC1=O)C(=O)N[C@@H](Cc1c[nH]cn1)C(=O)N1CCC[C@H]1C(=O)N[C@H](C(N)=O)CSSC[C@H](NC(=O)[C@@H](NC(=O)[C@H](CCCCN)NC(=O)[C@H](CC(N)=O)NC(=O)[C@@H](N)Cc1ccc(O)cc1)C(C)C)C(=O)N2 [compound 110] (HELM PEPTIDE1{Y.N.K.V.C.C.G.Y.K.L.C.H.P.C.[am]}$PEPTIDE1,PEPTIDE1,5:R3-14:R3|PEPTIDE1,PEPTIDE1,6:R3-11:R3$$$V2.0)
IC50: 0.977 µM

CC(C)C[C@@H]1NC(=O)[C@H](CCCCN)NC(=O)[C@H](Cc2ccc(O)cc2)NC(=O)CNC(=O)[C@@H]2CSSC[C@H](NC1=O)C(=O)N[C@@H](Cc1c[nH]cn1)C(=O)N1CCC[C@H]1C(=O)N[C@H](C(N)=O)CSSC[C@H](NC(=O)[C@@H](NC(=O)CNC(=O)[C@H](CC(N)=O)NC(=O)[C@@H](N)Cc1ccc(O)cc1)C(C)C)C(=O)N2 [compound 116]
IC50: 1.12 µM

CC(C)C[C@@H]1NC(=O)[C@H](CCCCN)NC(=O)[C@H](Cc2ccc(O)cc2)NC(=O)CNC(=O)[C@@H]2CSSC[C@H](NC1=O)C(=O)N[C@@H](Cc1c[nH]cn1)C(=O)N[C@@H](CCCCN)C(=O)N[C@H](C(N)=O)CSSC[C@H](NC(=O)[C@@H](NC(=O)CNC(=O)[C@@H](N)CC(N)=O)C(C)C)C(=O)N2 [compound 117] (HELM PEPTIDE1{N.G.V.C.C.G.Y.K.L.C.H.K.C.[am]}$PEPTIDE1,PEPTIDE1,4:R3-13:R3|PEPTIDE1,PEPTIDE1,5:R3-10:R3$$$V2.0)
IC50: 1.15 µM

CC(C)C[C@@H]1NC(=O)[C@H](CCCCN)NC(=O)[C@H](Cc2ccc(O)cc2)NC(=O)CNC(=O)[C@@H]2CSSC[C@H](NC1=O)C(=O)N[C@@H](Cc1c[nH]cn1)C(=O)N1CCC[C@H]1C(=O)N[C@H](C(N)=O)CSSC[C@H](NC(=O)[C@@H](NC(=O)[C@H](CCCNC(=N)N)NC(=O)[C@H](CC(N)=O)NC(=O)[C@@H](N)Cc1ccc(O)cc1)C(C)C)C(=O)N2 [compound 118] (HELM PEPTIDE1{Y.N.R.V.C.C.G.Y.K.L.C.H.P.C.[am]}$PEPTIDE1,PEPTIDE1,5:R3-14:R3|PEPTIDE1,PEPTIDE1,6:R3-11:R3$$$V2.0)
IC50: 1.17 µM

CC(C)C[C@@H]1NC(=O)[C@H](CCCCN)NC(=O)[C@H](Cc2ccc(O)cc2)NC(=O)CNC(=O)[C@@H]2CSSC[C@H](NC1=O)C(=O)N[C@@H](Cc1c[nH]cn1)C(=O)N1CCC[C@H]1C(=O)N[C@H](C(N)=O)CSSC[C@H](NC(=O)[C@@H](NC(=O)[C@H](CCCCN)NC(=O)[C@@H](N)CC(N)=O)C(C)C)C(=O)N2 [compound 122] (HELM PEPTIDE1{N.K.V.C.C.G.Y.K.L.C.H.P.C.[am]}$PEPTIDE1,PEPTIDE1,4:R3-13:R3|PEPTIDE1,PEPTIDE1,5:R3-10:R3$$$V2.0)
IC50: 1.32 µM

CC[C@H](C)[C@H](NC(=O)CNC(=O)[C@@H](N)CC(N)=O)C(=O)N[C@H]1CSSC[C@@H](C(N)=O)NC(=O)[C@@H]2CCCN2C(=O)[C@H](Cc2c[nH]cn2)NC(=O)[C@@H]2CSSC[C@H](NC1=O)C(=O)NCC(=O)N[C@@H](Cc1ccc(O)cc1)C(=O)N[C@@H](CCCCN)C(=O)N[C@@H](CC(C)C)C(=O)N2 [compound 125] (HELM PEPTIDE1{N.G.I.C.C.G.Y.K.L.C.H.P.C.[am]}$PEPTIDE1,PEPTIDE1,4:R3-13:R3|PEPTIDE1,PEPTIDE1,5:R3-10:R3$$$V2.0)
IC50: 1.41 µM

CC(C)C[C@@H]1NC(=O)[C@H](CCCCN)NC(=O)[C@H](Cc2ccc(O)cc2)NC(=O)CNC(=O)[C@@H]2CSSC[C@H](NC1=O)C(=O)N[C@@H](Cc1c[nH]cn1)C(=O)N1CCC[C@H]1C(=O)N[C@H](C(N)=O)CSSC[C@H](NC(=O)[C@@H](NC(=O)CNC(=O)[C@@H](N)CC(N)=O)[C@@H](C)O)C(=O)N2 [compound 138] (HELM PEPTIDE1{N.G.T.C.C.G.Y.K.L.C.H.P.C.[am]}$PEPTIDE1,PEPTIDE1,4:R3-13:R3|PEPTIDE1,PEPTIDE1,5:R3-10:R3$$$V2.0)
IC50: 2.29 µM

CC(C)C[C@@H]1NC(=O)[C@H](CCCCN)NC(=O)[C@H](Cc2ccc(O)cc2)NC(=O)CNC(=O)[C@@H]2CSSC[C@H](NC1=O)C(=O)N[C@@H](Cc1c[nH]cn1)C(=O)N[C@@H](C)C(=O)N[C@H](C(N)=O)CSSC[C@H](NC(=O)[C@@H](NC(=O)CNC(=O)[C@@H](N)CC(N)=O)C(C)C)C(=O)N2 [compound 145] (HELM PEPTIDE1{N.G.V.C.C.G.Y.K.L.C.H.A.C.[am]}$PEPTIDE1,PEPTIDE1,4:R3-13:R3|PEPTIDE1,PEPTIDE1,5:R3-10:R3$$$V2.0)
IC50: 2.95 µM

CC(C)C[C@@H]1NC(=O)[C@H](CCCCN)NC(=O)[C@H](Cc2ccc(O)cc2)NC(=O)CNC(=O)[C@@H]2CSSC[C@H](NC1=O)C(=O)N[C@@H](Cc1c[nH]cn1)C(=O)N1CCC[C@H]1C(=O)N[C@H](C(N)=O)CSSC[C@H](NC(=O)[C@@H](NC(=O)CNC(=O)[C@@H](N)CC(=O)O)C(C)C)C(=O)N2 [compound 151]
IC50: 3.55 µM

CC(=O)N[C@@H](CC(N)=O)C(=O)NCC(=O)N[C@H](C(=O)N[C@H]1CSSC[C@@H](C(N)=O)NC(=O)[C@@H]2CCCN2C(=O)[C@H](Cc2c[nH]cn2)NC(=O)[C@@H]2CSSC[C@H](NC1=O)C(=O)NCC(=O)N[C@@H](Cc1ccc(O)cc1)C(=O)N[C@@H](CCCCN)C(=O)N[C@@H](CC(C)C)C(=O)N2)C(C)C [compound 152]
IC50: 3.63 µM

CC(C)C[C@@H]1NC(=O)[C@H](CCCCN)NC(=O)[C@H](Cc2ccc(O)cc2)NC(=O)CNC(=O)[C@@H]2CSSC[C@H](NC1=O)C(=O)N[C@@H](Cc1c[nH]cn1)C(=O)N[C@@H](Cc1ccccc1)C(=O)N[C@H](C(N)=O)CSSC[C@H](NC(=O)[C@@H](NC(=O)CNC(=O)[C@@H](N)CC(N)=O)C(C)C)C(=O)N2 [compound 155]
IC50: 4.07 µM

CC(C)C[C@@H]1NC(=O)[C@H](CCCCN)NC(=O)[C@H](Cc2ccc(O)cc2)NC(=O)CNC(=O)[C@@H]2CSSC[C@H](NC1=O)C(=O)N[C@@H](Cc1c[nH]cn1)C(=O)N1CCC[C@H]1C(=O)N[C@H](C(N)=O)CSSC[C@H](NC(=O)[C@@H](NC(=O)[C@H](CO)NC(=O)[C@@H](N)CC(N)=O)C(C)C)C(=O)N2 [compound 156] (HELM PEPTIDE1{N.S.V.C.C.G.Y.K.L.C.H.P.C.[am]}$PEPTIDE1,PEPTIDE1,4:R3-13:R3|PEPTIDE1,PEPTIDE1,5:R3-10:R3$$$V2.0)
IC50: 4.27 µM

CC(C)C[C@@H]1NC(=O)[C@H](CCCCN)NC(=O)[C@H](Cc2ccc(O)cc2)NC(=O)CNC(=O)[C@@H]2CSSC[C@H](NC1=O)C(=O)N[C@@H](Cc1c[nH]cn1)C(=O)N[C@@H](CCC(=O)O)C(=O)N[C@H](C(N)=O)CSSC[C@H](NC(=O)[C@@H](NC(=O)CNC(=O)[C@@H](N)CC(N)=O)C(C)C)C(=O)N2 [compound 159] (HELM PEPTIDE1{N.G.V.C.C.G.Y.K.L.C.H.E.C.[am]}$PEPTIDE1,PEPTIDE1,4:R3-13:R3|PEPTIDE1,PEPTIDE1,5:R3-10:R3$$$V2.0)
IC50: 4.9 µM

CC(=O)N[C@@H](Cc1ccc(O)cc1)C(=O)N[C@@H](CC(N)=O)C(=O)NCC(=O)N[C@H](C(=O)N[C@H]1CSSC[C@@H](C(N)=O)NC(=O)[C@@H]2CCCN2C(=O)[C@H](Cc2c[nH]cn2)NC(=O)[C@@H]2CSSC[C@H](NC1=O)C(=O)NCC(=O)N[C@@H](Cc1ccc(O)cc1)C(=O)N[C@@H](CCCCN)C(=O)N[C@@H](CC(C)C)C(=O)N2)C(C)C [compound 161]
IC50: 6.17 µM

CC(C)C[C@@H]1NC(=O)[C@H](CCCCN)NC(=O)[C@H](Cc2ccc(O)cc2)NC(=O)CNC(=O)[C@@H]2CSSC[C@H](NC1=O)C(=O)N[C@@H](CCC(N)=O)C(=O)N1CCC[C@H]1C(=O)N[C@H](C(N)=O)CSSC[C@H](NC(=O)[C@@H](NC(=O)CNC(=O)[C@H](CC(N)=O)NC(=O)[C@@H](N)Cc1ccc(O)cc1)C(C)C)C(=O)N2 [compound 163] (HELM PEPTIDE1{Y.N.G.V.C.C.G.Y.K.L.C.Q.P.C.[am]}$PEPTIDE1,PEPTIDE1,5:R3-14:R3|PEPTIDE1,PEPTIDE1,6:R3-11:R3$$$V2.0)
IC50: 6.92 µM

CC(C)C[C@@H]1NC(=O)[C@H](CCCCN)NC(=O)[C@H](Cc2ccc(O)cc2)NC(=O)CNC(=O)[C@@H]2CSSC[C@H](NC1=O)C(=O)N[C@@H](Cc1c[nH]cn1)C(=O)N[C@@H](Cc1ccc(O)cc1)C(=O)N[C@H](C(N)=O)CSSC[C@H](NC(=O)[C@@H](NC(=O)CNC(=O)[C@@H](N)CC(N)=O)C(C)C)C(=O)N2 [compound 165]
IC50: 7.08 µM

CC(C)C[C@@H]1NC(=O)CNC(=O)[C@@H]2CSSC[C@H](NC(=O)[C@H](CC(C)C)NC(=O)[C@H](CCCCN)NC1=O)C(=O)N[C@@H](Cc1c[nH]cn1)C(=O)N1CCC[C@H]1C(=O)N[C@H](C(N)=O)CSSC[C@H](NC(=O)[C@@H](NC(=O)CNC(=O)[C@H](CC(N)=O)NC(=O)[C@@H](N)Cc1ccc(O)cc1)C(C)C)C(=O)N2 [compound 171] (HELM PEPTIDE1{Y.N.G.V.C.C.G.L.K.L.C.H.P.C.[am]}$PEPTIDE1,PEPTIDE1,5:R3-14:R3|PEPTIDE1,PEPTIDE1,6:R3-11:R3$$$V2.0)
IC50: 10.7 µM

CC(C)C[C@@H]1NC(=O)[C@H](C)NC(=O)[C@H](Cc2ccc(O)cc2)NC(=O)CNC(=O)[C@@H]2CSSC[C@H](NC1=O)C(=O)N[C@@H](Cc1c[nH]cn1)C(=O)N1CCC[C@H]1C(=O)N[C@H](C(N)=O)CSSC[C@H](NC(=O)[C@@H](NC(=O)CNC(=O)[C@@H](N)CC(N)=O)C(C)C)C(=O)N2 [compound 172]
IC50: 10.7 µM

CC(C)C[C@@H]1NC(=O)[C@H](Cc2ccc(O)cc2)NC(=O)CNC(=O)[C@@H]2CSSC[C@H](NC(=O)[C@H](CC(C)C)NC1=O)C(=O)N[C@@H](Cc1c[nH]cn1)C(=O)N1CCC[C@H]1C(=O)N[C@H](C(N)=O)CSSC[C@H](NC(=O)[C@@H](NC(=O)CNC(=O)[C@H](CC(N)=O)NC(=O)[C@@H](N)Cc1ccc(O)cc1)C(C)C)C(=O)N2 [compound 174] (HELM PEPTIDE1{Y.N.G.V.C.C.G.Y.L.L.C.H.P.C.[am]}$PEPTIDE1,PEPTIDE1,5:R3-14:R3|PEPTIDE1,PEPTIDE1,6:R3-11:R3$$$V2.0)
IC50: 17.4 µM

CC(C)C[C@@H]1NC(=O)[C@H](Cc2ccccc2)NC(=O)[C@H](Cc2ccc(O)cc2)NC(=O)CNC(=O)[C@@H]2CSSC[C@H](NC1=O)C(=O)N[C@@H](Cc1c[nH]cn1)C(=O)N1CCC[C@H]1C(=O)N[C@H](C(N)=O)CSSC[C@H](NC(=O)[C@@H](NC(=O)CNC(=O)[C@H](CC(N)=O)NC(=O)[C@@H](N)Cc1ccc(O)cc1)C(C)C)C(=O)N2 [compound 179] (HELM PEPTIDE1{Y.N.G.V.C.C.G.Y.F.L.C.H.P.C.[am]}$PEPTIDE1,PEPTIDE1,5:R3-14:R3|PEPTIDE1,PEPTIDE1,6:R3-11:R3$$$V2.0)
IC50: 25.1 µM
